Experimental data as given in patent US20250145641A1, “FUSED BICYCLIC DERIVATIVE, PHARMACEUTICALLY ACCEPTABLE SALT, CRYSTAL FORM THEREOF AND PREPARATION METHOD THEREFOR” (JIANGSU HENGRUI PHARMACEUTICALS CO., LTD., priority 2021, published 2025).

Columns and labels:
[1] = target: T1, AKT2 (Homo sapiens, UniProt P31751); assay: AKT2 kinase activity inhibition (KinEASE-STK S3 HTRF kit); type: biochemical
T1 construct: purchased Invitrogen PV3184
Procedure: (§1) The mean inhibition of kinase and the IC50 value were measured using a NovoStar microplate reader (BMG, Germany).
(§2) The following methods were used to determine the inhibitory effect of the compound of formula I on the kinase activity of AKT1/AKT2/AKT3 in vitro. The experimental method is briefly described as follows:
(§3) The enzyme activity of AKT1 (Invitrogen, P2999), AKT2 (Invitrogen, PV3184), and AKT3 (Invitrogen, PV3185) was determined using a KinEASE-STK S3 kit (Cisbio, 62ST3PEC). Test compounds were each first subjected to 3-fold gradient dilution with DMSO from 500 μM to obtain a total of 11 concentrations. The 5× buffer in the kit was diluted to 1× buffer, and DTT (Sigma, 43816-10ML) and MgCl2 were added to make the buffer contain 1 mM DTT and 5 mM MgCl2. Compounds were each subjected to 20-fold dilution with 1× buffer for later use. […] The mixture was incubated at room temperature for 60 min, values of signals emitted at […] and 620 nm after excitation at 337 nm were measured by using an HTRF module of a multi-functional microplate detector (BMG Labtech, PHERAstar FS), and the ratio of the readings was multiplied by 10,000 to obtain a ratio value. Dose-response curves were drawn according to the concentration of the compounds and the ratio values by using Graphpad Prism software, and the IC50 values for the inhibitory activity of the compounds were calculated.

[2] = Pharmacokinetic test in nude mice, intragastric administration; type: in vivo, Balb/c nude mice; conditions: i.g., 50 or 100 mg/kg
Procedure: (§4) The drug concentration in the plasma of the test animals (Balb/c nude mice) at different time points after intragastric administration (i.g.) of the test compounds was determined by using an LC/MS/MS method. The pharmacokinetic performance of the compound of formula I in nude mice was studied and their pharmacokinetic profile was evaluated.
18 Balb/c nude mice, female, divided into 2 groups and purchased from Vital River Laboratory Animal Technology Co., Ltd.
A certain amount of compound was weighed out, and 99.8% (0.5% methylcellulose) was added into the compound, and then 0.2% Tween was added. The mixture was subjected to ultrasonic treatment to obtain a suspension, which was stirred for administration.
The nude mice were subjected to intragastric administration with a dose of 50 mg/kg or 100 mg/kg and an administration volume of 0.2 mL/10 g. […]
The content of the test compounds in the nude mice plasma after intragastric administration of different concentrations of the compound was determined: 20 μL of nude mouse plasma at each time point after administration was mixed with 50 μL of internal standard solution (camptothecin, 100 ng/mL) and 200 μL of acetonitrile, and the mixture was vortexed for 5 min and centrifuged for 10 min at 3700 rpm. […]

[3] = Pharmacokinetic test in rats, injection (i.v.); type: in vivo; conditions: SD rats, 1 mg/kg
Procedure: as §4, with “(SD rats)” for “(Balb/c nude mice)”, “injection (i.v.)” for “intragastric administration (i.g.)”, “rats” for “nude mice”
8 SD rats, half male and half female, divided into 2 groups, purchased from Vital River Laboratory Animal Technology Co., Ltd.
A certain amount of the compound was weighed out, and 5% of DMSO, 5% of Tween 80, and 90% of normal saline were added to obtain a colorless and clear solution.
The rats were subjected to administration by injection with a dose of 1 mg/kg and an administration volume of 5 mL/kg.
The test compound was administered by injection to the rats, and 0.2 mL of blood was collected from the orbit before administration and 5 min, 0.25 h, 0.5 h, 1.0 h, 2.0 h, 4.0 h, 8.0 h, 11.0 h, and 24.0 h after administration. […]
The content of the test compounds in the rat plasma after administration by injection of different concentrations of the compound was determined: 25 μL of rat plasma at each time point after administration was mixed with 50 μL of internal standard solution (camptothecin, 100 ng/mL) and 200 μL of acetonitrile, and the mixture was vortexed for 5 min and centrifuged for 10 min at 3700 rpm. […]

[4] = target: T2, AKT1 (Homo sapiens, UniProt P31749); assay: AKT1 kinase activity inhibition (KinEASE-STK S3 HTRF kit); type: biochemical
T2 construct: purchased Invitrogen P2999
Procedure: as §1, §2, §3

[5] = target: T3, AKT3 (Homo sapiens, UniProt Q9Y243); assay: AKT3 kinase activity inhibition (KinEASE-STK S3 HTRF kit); type: biochemical
T3 construct: purchased Invitrogen PV3185
Procedure: as §1, §2, §3

T2 sequence (P31749 whole entry): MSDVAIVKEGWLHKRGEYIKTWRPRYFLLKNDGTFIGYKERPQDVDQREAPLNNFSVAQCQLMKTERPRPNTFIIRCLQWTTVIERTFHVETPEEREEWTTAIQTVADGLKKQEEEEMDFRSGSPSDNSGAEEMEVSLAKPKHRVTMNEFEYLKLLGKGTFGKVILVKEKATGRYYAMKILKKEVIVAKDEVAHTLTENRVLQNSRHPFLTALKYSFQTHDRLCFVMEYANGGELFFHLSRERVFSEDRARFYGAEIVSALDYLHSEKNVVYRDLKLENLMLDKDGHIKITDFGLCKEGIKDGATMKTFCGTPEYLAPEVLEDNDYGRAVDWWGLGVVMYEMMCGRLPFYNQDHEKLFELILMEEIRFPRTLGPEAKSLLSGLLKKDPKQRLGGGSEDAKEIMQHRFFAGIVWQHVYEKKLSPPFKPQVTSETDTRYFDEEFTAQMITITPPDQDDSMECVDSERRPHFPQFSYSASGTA
T1 sequence (P31751 whole entry): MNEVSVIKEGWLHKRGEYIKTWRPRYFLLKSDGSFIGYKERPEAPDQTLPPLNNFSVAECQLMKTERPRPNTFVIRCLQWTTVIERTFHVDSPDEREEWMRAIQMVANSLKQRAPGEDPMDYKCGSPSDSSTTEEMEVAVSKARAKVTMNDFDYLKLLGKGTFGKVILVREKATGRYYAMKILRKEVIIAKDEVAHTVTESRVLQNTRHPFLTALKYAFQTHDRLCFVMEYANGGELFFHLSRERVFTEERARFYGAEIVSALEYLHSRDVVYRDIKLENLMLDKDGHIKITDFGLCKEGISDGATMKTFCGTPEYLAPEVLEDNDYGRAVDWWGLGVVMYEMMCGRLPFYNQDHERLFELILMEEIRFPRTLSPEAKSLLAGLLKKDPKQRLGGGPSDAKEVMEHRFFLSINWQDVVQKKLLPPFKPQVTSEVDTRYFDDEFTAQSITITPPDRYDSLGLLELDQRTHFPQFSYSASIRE
T3 sequence (Q9Y243 whole entry): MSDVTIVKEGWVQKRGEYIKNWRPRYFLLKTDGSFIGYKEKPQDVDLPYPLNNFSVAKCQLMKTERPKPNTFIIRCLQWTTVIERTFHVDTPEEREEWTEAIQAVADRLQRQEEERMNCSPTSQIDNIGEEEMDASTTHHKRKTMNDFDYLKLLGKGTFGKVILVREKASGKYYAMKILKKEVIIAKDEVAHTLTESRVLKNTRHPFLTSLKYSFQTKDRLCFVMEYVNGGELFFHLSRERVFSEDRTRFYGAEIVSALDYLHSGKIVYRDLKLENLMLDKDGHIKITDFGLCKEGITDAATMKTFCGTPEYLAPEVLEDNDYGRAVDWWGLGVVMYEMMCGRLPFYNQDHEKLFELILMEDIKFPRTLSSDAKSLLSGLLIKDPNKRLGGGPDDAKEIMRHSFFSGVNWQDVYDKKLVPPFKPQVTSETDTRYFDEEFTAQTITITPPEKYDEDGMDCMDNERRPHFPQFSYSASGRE

Compound: CC(C)NC[C@@H](C(=O)N1C2CCC1CN(c1ncnc3c1C(C)(C)C(=O)N3)C2)c1ccc(Cl)cc1 [Compound of formula I]
- inhibitory effect on AKT2 enzyme (conclusion) [1]: good inhibitory effect
- pharmacokinetic absorption (conclusion) [2]: good pharmacokinetic absorption
- pharmacokinetics (conclusion) [3]: good pharmacokinetics
- inhibitory effect on AKT1 enzyme (conclusion) [4]: good inhibitory effect
- inhibitory effect on AKT3 enzyme (conclusion) [5]: good inhibitory effect
